One series addresses T1, recombinant human MAO-B (Homo sapiens, UniProt P27338).
T1 construct: purchased Sigma-Aldrich; host or cells: baculovirus-infected insect cells (microsomes)
T1 sequence (P27338 1-520): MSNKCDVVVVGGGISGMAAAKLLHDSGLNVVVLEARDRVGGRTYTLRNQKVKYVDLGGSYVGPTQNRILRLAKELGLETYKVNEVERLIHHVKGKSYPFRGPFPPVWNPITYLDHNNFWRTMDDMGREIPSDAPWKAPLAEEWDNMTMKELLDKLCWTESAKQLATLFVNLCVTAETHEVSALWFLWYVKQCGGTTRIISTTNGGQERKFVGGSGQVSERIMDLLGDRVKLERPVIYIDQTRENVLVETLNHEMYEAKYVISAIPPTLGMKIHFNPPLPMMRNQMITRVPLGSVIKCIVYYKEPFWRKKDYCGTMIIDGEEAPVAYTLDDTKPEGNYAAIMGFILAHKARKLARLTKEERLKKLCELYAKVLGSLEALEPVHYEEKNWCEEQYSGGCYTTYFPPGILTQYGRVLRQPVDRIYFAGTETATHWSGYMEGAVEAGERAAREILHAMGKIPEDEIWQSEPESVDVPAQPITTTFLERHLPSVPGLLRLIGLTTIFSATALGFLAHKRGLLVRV
Briefly: MAO-Glo chemiluminescent MAO-B inhibition assay.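 On all read-outs here: MAO-B from microsomes of baculovirus-infected insect cells, luciferin-based luminescence read-out, inhibition relative to enzyme activity with DMSO vehicle alone and no inhibitor.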 Format: biochemical. Particulars: for MAO-B inhibition (Yes/No): overall verdict over 1, 10 and 100 μM; for inhibition at 1 µM: test concentration 1 μM; for inhibition at 1 µM / inhibition at 10 µM / inhibition at 100 µM: mean ± standard deviation, triplicate, 90 min incubation; for inhibition at 10 µM: test concentration 10 μM; for inhibition at 100 µM: test concentration 100 μM.

The conditions of series [1]: measured in vivo in rat brain; cited from earlier work.

Structures are written as SMILES.

Data on 19 compounds can be found in patent US20150305367A1, “FROZEN CONFECTION” (CONOPCO, INC., D/B/A UNILEVER, priority 2012, published 2015).

As usually defined, the inhibition is the share of the control response that was lost under treatment.

As to `COc1ccccc1O` [2-Methoxyphenol], at recombinant human MAO-B, the “MAO-B inhibition (Yes/No)” value is listed as “No”, the inhibition at 1 µM came to 0%, the inhibition at 10 µM came out at 0% and the inhibition at 100 µM amounted to 0%.
For `O=Cc1ccc(O)c(O)c1` [3,4-Dihydroxybenzaldehyde], at recombinant human MAO-B, the “MAO-B inhibition (Yes/No)” value is given as “No”, the inhibition at 1 µM is 0%, the inhibition at 10 µM is 4 ± 5.1% and the inhibition at 100 µM was 9 ± 3.6%.
For `CC(=O)C(C)O` (stereo not drawn) [3-Hydroxy-2-butanone], at recombinant human MAO-B, the “MAO-B inhibition (Yes/No)” value is recorded as “No”, the inhibition at 1 µM stood at 11 ± 4.2%, the inhibition at 10 µM was determined as 6 ± 5.2% and the inhibition at 100 µM came to 7 ± 3.4%.
The corresponding values for `CC1=C(O)C(=O)C(C)O1` (stereo not drawn) [4-Hydroxy-2,5-dimethyl-3(2H)-furanone] are “No”, 0%, 9 ± 3.3% and 7 ± 11.7%.
The corresponding values for `O=Cc1ccc(O)cc1` [4-Hydroxybenzaldehyde] are “Yes”, 10 ± 3.2%, 6 ± 4.7% and 27 ± 5.1%.
For the compound `O=C(O)c1ccc(O)cc1` [4-Hydroxybenzoic acid], at recombinant human MAO-B, the “MAO-B inhibition (Yes/No)” value was “No”, the inhibition at 1 µM was 13 ± 3.2%, the inhibition at 10 µM came to 9 ± 5.2% and the inhibition at 100 µM came to 11 ± 5.7%.
In the case of `OCc1ccc(O)cc1` [4-Hydroxybenzyl alcohol], on recombinant human MAO-B, the “MAO-B inhibition (Yes/No)” value is given as “No”, the inhibition at 1 µM is 1 ± 7.9%, the inhibition at 10 µM amounted to 0% and the inhibition at 100 µM was found to be 6 ± 8.1%.
For `COc1ccc(C=O)cc1` [4-Methoxybenzaldehyde], in that order: “Yes”, 0%, 11 ± 3.8% and 75 ± 1.9%.
For `O=C(/C=C/c1ccccc1)OCc1ccccc1` [Benzyl cinnamate], in that order: “Yes”, 10 ± 6.4%, 63 ± 3.1% and 100%.
Regarding `O=C(O)/C=C/c1ccc(O)cc1` [Coumaric acid], on recombinant human MAO-B, the inhibition at 1 µM came out at 11 ± 4.2%, the inhibition at 10 µM turned out to be 16 ± 2.8% and the inhibition at 100 µM turned out to be 17 ± 7.3%.
Turning to `CCOc1cc(C=O)ccc1O` [Ethyl vanillin], on recombinant human MAO-B, the “MAO-B inhibition (Yes/No)” value was “No”, the inhibition at 1 µM amounted to 0%, the inhibition at 10 µM was 0% and the inhibition at 100 µM came to 4 ± 5.3%.
Consider `C=CCc1ccc(O)c(OC)c1` [Eugenol], for which, on recombinant human MAO-B, the “MAO-B inhibition (Yes/No)” value is “No”, the inhibition at 1 µM is 0%, the inhibition at 10 µM turned out to be 4 ± 4.6% and the inhibition at 100 µM was 0%.
With `COc1cc(/C=C/C(=O)O)ccc1O` [Ferulic acid], on recombinant human MAO-B, the “MAO-B inhibition (Yes/No)” value is listed as “No”, the inhibition at 1 µM came to 4 ± 1.2%, the inhibition at 10 µM was 9 ± 1.7% and the inhibition at 100 µM worked out at 4 ± 7%.
The corresponding values for `O=Cc1ccc2c(c1)OCO2` [Piperonal] are “Yes”, 10 ± 2.9%, 53 ± 4% and 100%.
For `COc1cc(C(=O)O)ccc1O` [Vanillic acid], in that order: “No”, 6 ± 4.2%, 5 ± 7.3% and 11 ± 3.3%.
Turning to `COc1cc(C=O)ccc1O` [Vanillin], the inhibition at 100 µM on recombinant human MAO-B came out at 19 ± 5.6%.
`COc1cc(CO)ccc1O` [Vanillyl Alcohol]: at recombinant human MAO-B, the “MAO-B inhibition (Yes/No)” value was “No”, the inhibition at 1 µM worked out at 2 ± 4%, the inhibition at 10 µM came to 9 ± 3% and the inhibition at 100 µM amounted to 6 ± 5.1%.
The corresponding values for `COc1ccc(C=O)cc1OC` [Veratraldehyde] are “No”, 1 ± 1.5%, 2 ± 6.6% and 0%.
Regarding `NCCc1ccccc1` [phenylethylamine, Phenylethylamine], the endogenous pool half-life entry in series [1] is “approximately 30 s”.
